# Laboratory results: paper PMC12296639, “Synthesis and Bioactivity Investigation of Novel 2-({2-[(Dialkylamino) Methyl] Quinazolin-4-one-3-yl} Methyl) Benzonitrile Derivatives as Dipeptidyl Peptidase-4 Inhibitory Agent” (Iranian Journal of Pharmaceutical Research : IJPR, 2025)
# Molecular target: T1, DPP-4 (Homo sapiens, UniProt P27487)
# T1 construct: purchased MAK203
# Test: in vitro DPP-4 inhibitory activity assay (DPP-4 inhibitor screening kit MAK203)
# Format: biochemical
# Conditions: fluorescence assay kit, 37°C; IC50 from linear equation of inhibition % vs concentration
# Procedure: The in vitro DPP-4 inhibitory activity of the prepared compounds was evaluated using the DPP-4 inhibitor screening kit (MAK203) according to the test protocol with slight modifications ([17]). […] Substrate solutions (25 μL) were added to each well, covered, and incubated at 37°C for 30 minutes. […] The following formula was used to calculate the percent inhibition (Equation 1):
# Inhibition %= (initial activity-inhibitor activity)/initial activity×100 %
# The IC50 value was calculated from y = a + bx (linear equation) obtained from the relation of the inhibition activity (%) (y) and the concentration (x) of the substance being measured.
# T1 sequence (P27487 whole entry): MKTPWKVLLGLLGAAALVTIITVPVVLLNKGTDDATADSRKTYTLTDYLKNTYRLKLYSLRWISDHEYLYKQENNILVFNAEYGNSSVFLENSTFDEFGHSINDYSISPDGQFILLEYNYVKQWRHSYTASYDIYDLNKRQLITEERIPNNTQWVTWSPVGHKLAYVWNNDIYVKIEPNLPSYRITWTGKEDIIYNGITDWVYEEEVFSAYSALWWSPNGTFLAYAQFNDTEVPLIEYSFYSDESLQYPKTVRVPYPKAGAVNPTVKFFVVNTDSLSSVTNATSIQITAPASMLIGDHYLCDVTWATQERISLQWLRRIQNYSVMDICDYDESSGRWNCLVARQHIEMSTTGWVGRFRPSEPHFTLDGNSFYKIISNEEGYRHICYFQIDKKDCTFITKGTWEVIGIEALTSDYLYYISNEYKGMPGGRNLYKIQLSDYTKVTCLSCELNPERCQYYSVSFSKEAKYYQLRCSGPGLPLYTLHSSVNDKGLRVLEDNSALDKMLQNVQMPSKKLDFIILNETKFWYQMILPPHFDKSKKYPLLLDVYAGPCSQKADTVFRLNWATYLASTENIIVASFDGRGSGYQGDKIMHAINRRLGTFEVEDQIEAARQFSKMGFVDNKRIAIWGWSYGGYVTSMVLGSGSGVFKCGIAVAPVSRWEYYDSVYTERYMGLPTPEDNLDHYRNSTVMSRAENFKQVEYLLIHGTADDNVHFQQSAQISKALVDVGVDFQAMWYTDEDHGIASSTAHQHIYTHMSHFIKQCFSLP
row,SMILES,IC50 [µM]
1,"CN(C)Cc1nc2ccccc2c(=O)n1Cc1ccccc1C#N [5a, 2-({2-[Dimethylaminomethyl]quinazolin-4-one-3-yl}methyl)benzonitrile]",4.92
2,"CCN(CC)Cc1nc2ccccc2c(=O)n1Cc1ccccc1C#N [5b, 2-({2-[Diethylaminomethyl]quinazolin-4-one-3-yl}methyl)benzonitrile]",5.29
3,"CCCCN(CCCC)Cc1nc2ccccc2c(=O)n1Cc1ccccc1C#N [5c, 2-({2-[Dibutylaminomethyl]quinazolin-4-one-3-yl}methyl)benzonitrile]",6.78

# The remaining lines, values ahead:
row,IC50 [µM],SMILES
1,1.46,"N#Cc1ccccc1Cn1c(CN2CCOCC2)nc2ccccc2c1=O [5d, 2-({2-[Morpholinomethyl]quinazolin-4-one-3-yl}methyl)benzonitrile]"
2,3.07,"N#Cc1ccccc1Cn1c(CN2CCCC2)nc2ccccc2c1=O [5e, 2-({2-[Pyrrolidinomethyl]quinazolin-4-one-3-yl}methyl)benzonitrile]"
3,3.56,"CN1CCN(Cc2nc3ccccc3c(=O)n2Cc2ccccc2C#N)CC1 [5f, 2-({2-[N-methylpiperazinomethyl]quinazolin-4-one-3-yl}methyl)benzonitrile]"
